Measurements: US20030118510A1 (priority 2001, published 2003)

How the values were obtained:
blood glucose [1] = experiment: Blood glucose following intratracheal administration of 2K PEG insulin in rats (Example 12, P-2002-010); assay type: in vivo, male rats; conditions: i.t.
Description: Fourteen (N=7/Group) fasted male rats (Hilltop Lab Animals, Scottsdale, Pa. (300-350 g)) with indwelling jugular vein catheters (JVC) were used for this study. […] Animal 2-3 was dropped from the study due to a clogged catheter.

[2] = Intratracheal administration of 750-2 PEG insulin in rats (Example 11, P-2002-003)
Description: (§1) The rats were lightly anesthetized using inhaled 3.0-5.0% Isoflurane (Abbott Laboratories) mixed with oxygen for approximately 5 minutes in a plexiglass anesthesia chamber. Administration was accomplished by insertion of a gavage needle (Popper & Sons Inc.; 18×3″ W2-¼ mm ball, New Hyde Park, N.Y. 11040) fitted into a 1 mL syringe into the mouth of the rat down the trachea to just above the main carina. When inserting the gavage needle into the trachea, proper insertion was detected by feeling for the roughness of the cartilage rings under the skin of the throat using the ball of the gavage needle. Doses were administered into the lungs utilizing this method, and followed by removal of the gavage needle.
(§2) Fourteen (N=7/Group) fasted male rats (Hilltop Lab Animals, Scottsdale, Pa. (300-350 g)) with indwelling jugular vein catheters (JVC) were used for this study.
(§3) The in-vivo rat study was conducted essentially as described in Example 8 above.
Absolute bioavailability was calculated as follows: [formula]

blood glucose [3] = experiment: Blood glucose following intratracheal administration of 750-1 PEG insulin in rats (Example 9, P-2001-025); assay type: in vivo, male rats; conditions: i.t.
Description: as §1, §2, §3

blood glucose [4] = experiment: Blood glucose following intratracheal administration of 750-1 PEG insulin in rats (Example 10, P-2002-001); assay type: in vivo, male rats; conditions: i.t.
Description: as §1, §2
The in-vivo intratracheal rat study was conducted essentially as described in Example 8 above.

blood glucose [5] = conditions: i.t.
Description: as §1, §2

blood glucose [6] = conditions: rats, 20, 30, 40 μg/animal

## 2K PEG insulin: insulin pegylated in non-site specific (random) fashion with linear mPEG-succinimidyl propionate ~2,000 Daltons; mixture of mono and di-pegylated product
Blood glucose [1]; 600 μg, 900 μg and 1200 μg per animal
  glucose levels at time points past about 6 hours compared with non-pegylated insulin: suppressed significantly below those of non-pegylated insulin
Blood glucose [1]; 300-1200 μg/animal
  dose response of decrease in blood glucose concentration: Good dose response
Blood glucose [1]; Example 12
  time point at which maximum glucose suppression was achieved: about 3 hours

## 750-1 PEG insulin: 750 PEG insulin composition prepared at molar ratio of PEG reagent (mPEG-SPA-750) to insulin of 7:1
[2]; i.t., 80 μg/animal
  mean serum insulin and mean blood glucose concentrations following intratracheal instillation (FIG. 10, FIG. 11): Results similar to those in Examples 9 and 10
Blood glucose [3]; Example 9
  glucose suppression over the 12 hour period compared with unmodified insulin: significantly increased
  onset of action (suppression of glucose): rapid onset of action comparable to native insulin
  time at which glucose levels had not yet returned (duration of glucose suppression): > 12 h
Blood glucose [3]; Example 9, 100 μg dose
  time to reach maximum glucose lowering: ≥ 6 h
Blood glucose [3]; Example 9, 300 μg dose
  time to reach maximum glucose lowering: ≥ 8 h
Blood glucose [3]; Example 9, 500 μg dose
  time to reach maximum glucose lowering: at least 4 hours
Blood glucose [4]; Example 10, 80 and 160 μg/animal
  duration of glucose suppression: > 25 h
Blood glucose [4]; Example 10, 8 hours
  glucose levels at 8 hours, times lower than for unmodified insulin: about 1.5 times

## 750-2 PEG insulin: 750 PEG insulin composition prepared at molar ratio of PEG reagent (mPEG-SPA-750) to insulin of 3:1
[2]; rat, in vivo
  TMax: 1.22 h

## N^αB1-Methoxypoly(ethylene glycol)5K- propionamido-insulin [5K PEG insulin]
Blood glucose [5]; 150 μg/animal vs non-pegylated insulin 40 μg/animal
  lowering of blood glucose compared with non-pegylated insulin: less effective than non-pegylated insulin
Blood glucose [5]; 150 μg/animal, male rats
  lowering of blood glucose when administered to the lung: effective in lowering blood glucose
Blood glucose [6]; i.v.
  bioactivity (ability to lower blood glucose): possesses bioactivity
Blood glucose [6]
  glucose levels following i.v. administration: dose dependent decrease
